Data taken from US4952578A, “Cephem compound and a process for preparation thereof” (Fujisawa Pharmaceutical Co., Ltd., priority 1987, dated 1990).
Converted amounts (≈) assume the structure as drawn.

System: P. aeruginosa 26
Assay: In vitro antibacterial activity (MIC) by two-fold agar-plate dilution method
Assay type: cell-based
Conditions: Pseudomonas aeruginosa, HI-agar, 37° C., 20 hours, read-out: MIC (minimal inhibitory concentration)
Description: Now in order to show the utility of the object compound [I], the test data on MIC (minimal inhibitory concentration) of representative compound [I] of this invention is shown in the following.
In vitro antibacterial activity was determined by the two-fold agar-plate dilution method as described below.
One loopful of an overnight culture of each test strain in Trypticase-soy broth (10^8 viable cells per ml) was streaked on heart infusion agar (HI-agar) containing graded concentrations of representative test compound, and the minimal inhibitory concentration (MIC) was expressed in terms of μg/ml after incubation at 37° C. for 20 hours.

MIC: 0.39 µg/mL (≈ 0.746 µM)
Compound: CO/N=C(\C(=O)N[C@@H]1C(=O)N2C(C(=O)[O-])=C(C[n+]3ccc(N)n3CCO)CS[C@H]12)c1csc(N)n1 [Test Compound (1), 7β-[2-(2-Aminothiazol-4-yl)-2-methoxyiminoacetamido]-3-[3-amino-2-(2-hydroxyethyl)-1-pyrazolio]methyl-3-cephem-4-carboxylate (syn isomer)]
